What is called IC50 is the concentration needed to halve the response being measured. In general, viability, T/C refers to the ratio of treated to control.

Five molecules from PubChem BioAssay AID1918993 (Molecular Pharmacology Branch, DTP, NCI, 2023) can be followed below.

Where “and” joins values, the source holds several entries; their conditions need not be identical. Identical values can stand only once.

The test deals with 233499-124-R-J3-PDC complex spheroid growth. The experiment in a line: Anticancer human tumor 233499-124-R-J3-PDC patient-derived colon adenocarcinoma cell line growth inhibition [AhR]. Particulars: for viability, T/C: stronger effect = lower value. The method in brief: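 Spheroids combined tumor cells with HUVEC endothelial cells and human MSCs as stroma. AhR antagonists were paired with standard or investigational drugs, each dosed in half-log steps down from near clinical Cmax, or from 10 microM where Cmax was unknown.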

Where [1] appears, read: curve of first compound, second compound 0.1 µM.
[2] abbreviates: curve of first compound, second compound 0.316 µM.
Where [3] appears, read: curve of first compound, second compound 1 µM.
The mark [4] stands for this setting: curve of first compound, second compound 3.16 µM.
[5] abbreviates: curve of first compound, second compound 10 µM.
Where [6] appears, read: second compound 0.1 µM, first compound 0.0316 µM.
[7] abbreviates: second compound 0.1 µM, first compound 0.1 µM.
Setting [8] is: second compound 0.1 µM, first compound 0.316 µM.
Where [9] appears, read: second compound 0.1 µM, first compound 1 µM.
The mark [10] stands for this setting: second compound 0.316 µM, first compound 0.0316 µM.
[11] abbreviates: second compound 0.316 µM, first compound 0.1 µM.
Setting [12] is: second compound 0.316 µM, first compound 0.316 µM.
The mark [13] stands for this setting: second compound 0.316 µM, first compound 1 µM.
The mark [14] stands for this setting: second compound 1 µM, first compound 0.0316 µM.
The mark [15] stands for this setting: second compound 1 µM, first compound 0.1 µM.
Setting [16] is: second compound 1 µM, first compound 0.316 µM.
Setting [17] is: second compound 1 µM, first compound 1 µM.
Setting [18] is: second compound 3.16 µM, first compound 0.0316 µM.
Where [19] appears, read: second compound 3.16 µM, first compound 0.1 µM.
[20] abbreviates: second compound 3.16 µM, first compound 0.316 µM.
The mark [21] stands for this setting: second compound 3.16 µM, first compound 1 µM.
The mark [22] stands for this setting: second compound 10 µM, first compound 0.0316 µM.
Setting [23] is: second compound 10 µM, first compound 0.1 µM.
The mark [24] stands for this setting: second compound 10 µM, first compound 0.316 µM.
Setting [25] is: second compound 10 µM, first compound 1 µM.
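Note: spheroids exposed to agents for seven days before reading.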

As for `CC1COCCN1c1cc(-c2ccnn2C)c2ccnc(-c3ccn[nH]3)c2n1` (stereo not given) + Cc1ccccc1N=Nc1ccc(NC(=O)c2ccnn2C)c(C)c1, the IC50 is, setting by setting: under setting [1], greater than 1000 nM; under setting [2], greater than 1000 nM; under setting [3], 984 nM; under setting [4], greater than 1000 nM; under setting [5], greater than 1000 nM. In addition, the viability, T/C was 91.3% (second compound 0.1 µM, first compound 0.00316 µM); 98.8% (second compound 0.1 µM, first compound 0.01 µM); 105% under setting [6]; 93.9% under setting [7]; 68.2% under setting [8]; 55.1% under setting [9]. In addition, the viability, T/C is 99.4% (second compound 0.316 µM, first compound 0.00316 µM); 93.9% (second compound 0.316 µM, first compound 0.01 µM); 92.2% under setting [10]; 92.3% under setting [11]; 75% under setting [12]; 50.7% under setting [13]. Further, the viability, T/C reads like this: (second compound 1 µM, first compound 0.00316 µM) 87.1%; (second compound 1 µM, first compound 0.01 µM) 97.1%; under setting [14], 85.6%; under setting [15], 91.8%; under setting [16], 81.6%; under setting [17], 49.3%. Also, the viability, T/C was 91.8% (second compound 3.16 µM, first compound 0.00316 µM); 103% (second compound 3.16 µM, first compound 0.01 µM); 85% under setting [18]; 74% under setting [19]; 57.2% under setting [20]; 58% under setting [21]. In addition, the viability, T/C is 103% (second compound 10 µM, first compound 0.00316 µM); 99.3% (second compound 10 µM, first compound 0.01 µM); 101% under setting [22]; 80.5% under setting [23]; 74.5% under setting [24]; 58.7% under setting [25].
As for `COc1cccc2c1C(=O)c1c(O)c3c(c(O)c1C2=O)CC(O)(C(=O)CO)CC3OC1CC(N)C(O)C(C)O1` (stereo not given) + CC(CO)NC(=O)c1cc(-c2ccc(Cl)cc2)nn(-c2cnn(C)c2)c1=O, the IC50 by setting is: under setting [1], 4490 nM; under setting [2], 5320 nM; under setting [3], 3760 nM; under setting [4], 3430 nM; under setting [5], 1620 nM. Further, the viability, T/C reads like this: under setting [6], 103%; under setting [7], 104%; under setting [8], 87.8%; under setting [9], 78.3%; (second compound 0.1 µM, first compound 3.16 µM) 58.3%; (second compound 0.1 µM, first compound 10 µM) 31.8%. In addition, the viability, T/C runs as follows: under setting [10], 98.3%; under setting [11], 100%; under setting [12], 90.4%; under setting [13], 81.6%; (second compound 0.316 µM, first compound 3.16 µM) 65.1%; (second compound 0.316 µM, first compound 10 µM) 32.5%. Further, the viability, T/C under setting [14] is 96.7%; the viability, T/C under setting [15] is 111%; the viability, T/C under setting [16] is 98.4%; the viability, T/C under setting [17] is 70.7%; the viability, T/C (second compound 1 µM, first compound 3.16 µM) is 58.9%; the viability, T/C (second compound 1 µM, first compound 10 µM) is 27.1%. Further, the viability, T/C under setting [18] is 85.6%; the viability, T/C under setting [19] was 99.2%; the viability, T/C under setting [20] is 88.7%; the viability, T/C under setting [21] was 57.6%; the viability, T/C (second compound 3.16 µM, first compound 3.16 µM) was 59.3%; the viability, T/C (second compound 3.16 µM, first compound 10 µM) was 27%. In addition, the viability, T/C is, setting by setting: under setting [22], 90.5%; under setting [23], 76.1%; under setting [24], 72.8%; under setting [25], 58%; (second compound 10 µM, first compound 3.16 µM) 40.3%; (second compound 10 µM, first compound 10 µM) 6.01%.
In the case of `Cc1ccccc1N=Nc1ccc(NC(=O)c2ccnn2C)c(C)c1`, the viability, T/C by setting is: (compound 0.1 µM) 102% [middle of 20 runs]; (compound 10 µM) 97.8% [middle of 20 runs]. Also, where the note is “compound alone, run of 07/26/2022”, the 50% inhibitory concentration (IC50) is greater than 10000 nM.
Turning to `Nc1ncn(C2CC(O)C(CO)O2)c(=O)n1` (stereo not given), the viability, T/C by setting is: (compound 0.00316 µM) 100% and 95.5% and 94.7%; (compound 0.01 µM) 99.2% and 102% and 92.5%; (compound 0.0316 µM) 89.7% and 85.1% and 97%; (compound 0.1 µM) 94.7% and 85.4% and 97.1%; (compound 0.316 µM) 92.5% and 90.6% and 99.1%; (compound 1 µM) 86.9% and 92.4% and 92.5%. Besides, the half-inhibitory concentration (IC50) (curve of compound) is greater than 1000 nM.
For the molecule `Nc1ncn(C2CC(O)C(CO)S2)c(=O)n1` (stereo not given) + Cc1cncc(-c2nc(NCCc3c[nH]c4ccccc34)c3ncn(C(C)C)c3n2)c1, the half-inhibitory concentration (IC50) is, setting by setting: under setting [1], greater than 300 nM; under setting [2], greater than 300 nM; under setting [3], greater than 300 nM; under setting [4], greater than 300 nM; under setting [5], less than 0.949 nM. In addition, the viability, T/C is, setting by setting: (second compound 0.1 µM, first compound 0.000949 µM) 89.6%; (second compound 0.1 µM, first compound 0.003 µM) 96.5%; (second compound 0.1 µM, first compound 0.00949 µM) 89.8%; (second compound 0.1 µM, first compound 0.03 µM) 93.9%; (second compound 0.1 µM, first compound 0.0949 µM) 103%; (second compound 0.1 µM, first compound 0.3 µM) 103%. In addition, the viability, T/C is, setting by setting: (second compound 0.316 µM, first compound 0.000949 µM) 72.9%; (second compound 0.316 µM, first compound 0.003 µM) 83%; (second compound 0.316 µM, first compound 0.00949 µM) 86.9%; (second compound 0.316 µM, first compound 0.03 µM) 89.6%; (second compound 0.316 µM, first compound 0.0949 µM) 96.9%; (second compound 0.316 µM, first compound 0.3 µM) 97.1%. The viability, T/C is, setting by setting: (second compound 1 µM, first compound 0.000949 µM) 77.3%; (second compound 1 µM, first compound 0.003 µM) 66.2%; (second compound 1 µM, first compound 0.00949 µM) 84.6%; (second compound 1 µM, first compound 0.03 µM) 85.6%; (second compound 1 µM, first compound 0.0949 µM) 89.1%; (second compound 1 µM, first compound 0.3 µM) 83.4%. For the same molecule, the viability, T/C was 101% (second compound 3.16 µM, first compound 0.000949 µM); 94.3% (second compound 3.16 µM, first compound 0.003 µM); 97.1% (second compound 3.16 µM, first compound 0.00949 µM); 103% (second compound 3.16 µM, first compound 0.03 µM); 104% (second compound 3.16 µM, first compound 0.0949 µM); 99.4% (second compound 3.16 µM, first compound 0.3 µM). The viability, T/C is 8.85% (second compound 10 µM, first compound 0.000949 µM); 8.14% (second compound 10 µM, first compound 0.003 µM); 14.4% (second compound 10 µM, first compound 0.00949 µM); 16.2% (second compound 10 µM, first compound 0.03 µM); 20.1% (second compound 10 µM, first compound 0.0949 µM); 26.1% (second compound 10 µM, first compound 0.3 µM).
